Assay results as given in article PMC11455950, “Effects of SZV-2649, a new multiple ion channel inhibitor mexiletine analogue” (Scientific Reports, 2024).

Key:
anesthetized rats = experiment: Coronary artery occlusion/reperfusion-induced ventricular arrhythmias in anesthetized rats; assay type: in vivo, rat; conditions: for Effect on incidence of ventricular arrhythmias: 6 min coronary artery occlusion / 5 min reperfusion, i.v. 2 min before ischemia; for Incidence of ventricular fibrillation (VF): during reperfusion, over 50% in control animals; for Effect on heart rate: i.v. administration, anesthetized rats
From the text: The effects of SZV-2649 were further studied in the acute ischemia-induced ventricular arrhythmia model in anasthetized rats. Mexiletine and dofetilide were used as reference compounds for comparison.
The surgical procedure was based on a modified method described in detail in Gömöri et al. (2020)[62]. Pentobarbital-anesthetized male Wistar-Hannover rats were mechanically ventilated and subjected to thoracic surgery to perform a 6-min coronary artery occlusion and 5-min of reperfusion for the development of ischemia-induced ventricular arrhythmias (see Fig. 6A). The right jugular vein was cannulated for the administration of SZV-2649, vehicle, mexiletine or dofetilide, and the right carotid artery was used to measure blood pressure. The three-lead electrocardiogram and body temperature were continuously registered. Ten to twelve rats per group were administered vehicle (dimethyl sulfoxide, 200 µL/kg) or the studied drugs (see above), 2 min before the onset of ischemia as a slow i.v. bolus injection through the right jugular vein. At the end of 5-min reperfusion, hearts were isolated, mounted onto a Langendorff perfusion system, and after re-occluding the coronary artery, were perfused with 5-mL of 70% ethanol via the ascending aorta to delineate the ischemic risk zone. Then the left ventricles were cut along the demarcation lines of denatured area, and the sections were weighed to determine the area of risk to normalize the extent of the ischaemic insult. We evaluated the occurrence of ventricular arrhythmias based on the recommendations of the modified Lambeth Conventions published previously by Curtis et al. (2013)[63].

[1] = tested on: IKACh in dog atrial trabecular muscle preparations; experiment: Action potential duration in carbachol-pretreated dog atrial trabecular muscle; conditions: 1 µM, 10 min
Method: The possible effect of SZV-2649 on IKACh was investigated in dog atrial trabecular muscle preparations. Carbachol (1 µM) was added to the tissue bath for 10 min to activate IKACh. […] Application of 10 µM SZV-2649 prolonged APD substantially to a greater degree (100%) than could be expected by its effect on repolarization in the absence of carbachol (10%) as shown in Table 1; Fig. 5D.
Action potentials were recorded in cardiac ventricular trabeculae and papillary muscle preparations obtained from the right ventricles of Beagle dogs (10–15 kg) of either sex using the conventional microelectrode technique. Dogs were sacrificed by iv. sedation with xylazine (1 mg/kg), followed by i.v. administration of 50 mg/kg pentobarbital. After the cornea reflex disapeared the chest was opened, and the heart was rapidly removed. […]
Isolated papillary muscle or atrial trabecula and Purkinje fiber preparations were obtained and prepared from the right ventricle and were individually mounted in a tissue chamber with the volume of 50 ml. […] Transmembrane potentials were recorded using conventional glass microelectrodes, filled with 3 M KCl and having tip resistances of 5–20 MΩ, connected to the input of a high impedance electrometer (Experimetria, type 309, Budapest, Hungary) which was coupled to a dual beam oscilloscope. […]

anesthetized dogs = experiment: Atrial fibrillation induced by carbachol infusion and burst stimulation in anesthetized dogs; assay type: in vivo, dog; parameters: key to AF converted to SR? / AF reinduced?: N, response not observed; Y, response observed; conditions: i.v. 0.3 mg/kg
Method: The effect of SZV-2649 was further investigated in carbachol-infused and programmed electrical stimulation-induced (i.e. 800/min atrial burst stimulation) acute atrial fibillation model in anesthetized dogs.
In the atrial fibrillation experiments, at least 5–6 dogs for control and test groups, (respectively) were used. Following 0.5 µg/kg sufentanyl premedication and […] i.v. pentobarbital anaesthesia induction, left thoracotomy was performed on all animals. Dogs were endotracheally intubated and mechanically ventilated (UGO Basile respirator; Biological Research Apparatus, Italy) Physiological parameters (non-invasive blood pressure, SpO2, ECG) were continuously monitored during surgery and experiments (InnoCare-VET Patient Care Monitor; Budapest, Hungary). The ECGs were recorded using precordial leads and were digitized and stored on a computer for off-line analysis using National Instruments data acquisition hardware (National Instruments, Austin, Texas, USA) and SPEL Advanced Haemosys software (version 3.2, MDE Heidelberg GmbH, Germany). Under pentobarbital anaesthesia, two pacemaker electrodes (Biotronik Solia S 60; Biotronik Ltd., Hungary) were positioned epicardially into the left atrial appendage and apex of the left ventricle, respectively, and electrodes were connected to pacemakers (Effecta D; Biotronik Hungary Ltd., Hungary). Pacemakers were programmed in VVI mode using Biotronik IC: 4808 A-Renamic programmer to prevent the potentially bradycardic effect of carbachol leading to hemodynamic instability. Atrial and ventricular thresholds were measured before AF induction in all animals. Ventricular and atrial pacing were set to three times the measured threshold. AF inducibility were tested in both groups using a control set (25 times) of 10-second-long rapid atrial bursts (800 beats/min, at threefold threshold). Following 25 atrial burst stimuli, 2 × 2 µg/kg loading dose of intravenous carbachol was administered followed by an 8 µg/kg/h maintenance dose. Atrial fibrillation was induced using 10-second-long atrial burst stimuli in the presence of carbachol in both groups of dogs. […] In these experiments, we investigated whether AF was converted to SR by the test drug(s). All intravenous infusions were performed using a programmable infusion pump (Terufusion TE-3; Terumo Europe, Leuven, Belgium).

Row | SMILES | Effect on incidence of ventricular arrhythmias (anesthetized rats) | Incidence of ventricular fibrillation (VF) (anesthetized rats) | Effect on heart rate (anesthetized rats) | other results
1 | CN(CCOc1ccc(NS(C)(=O)=O)cc1)CCc1ccc(NS(C)(=O)=O)cc1 [dofetilide] | increased | 75% | significantly decreased | 
2 | Cc1cccc(C)c1OCC(C)N (centres unmarked) [mexiletine] | showed some antiarrhythmic effects | 18% | significantly decreased | 
3 | C[N+](C)(C)CCOC(N)=O [carbachol, reference compound] |  |  |  | Effect on atrial repolarization [1]: substantially shortened
4 | CCCNCC(O)COc1ccccc1C(=O)CCc1ccccc1 (centres unmarked) [propafenone, reference compound] |  |  |  | AF reinduced (number of the 25 burst stimuli) (anesthetized dogs; individual dogs, carbachol + burst): 1/25; AF reinduced? (anesthetized dogs; individual dogs, carbachol + burst, 0.3 mg/kg): N (-) and Y; Atrial fibrillation reinduced, share of burst stimuli (anesthetized dogs; whole group): 1.6%; Times atrial fibrillation was reinduced by the 25 burst stimuli delivered in each animal (anesthetized dogs; whole group): 2 times
